The supplement of paper PMC10307832

How the values were obtained:
Test in all cases: relative viability (nuclei count vs DMSO), 5 days (fraction); higher = more cells survive
NCI-H2023 = system: NCI-H2023
Procedure, shortened: (§1)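 Values are medians from duplicate plates. Each reflects relative viability, defined as the nuclei count of treated wells over that of vehicle wells. Lung cancer cell lines in 1536-well plates were pin-tool dosed one day after seeding with one drug alone or with a fixed anchor-drug dose plus five library-drug doses (not always all listed) in √10 steps, then fixed, stained and imaged at 4× after 5 days.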

NCI-H23 = system: NCI-H23
Procedure, shortened: as §1

HOP-62 = system: HOP-62
Procedure, shortened: as §1

NCI-H322M = system: NCI-H322M
Procedure, shortened: as §1

NCI-H441 = system: NCI-H441
Procedure, shortened: as §1

NCI-H2009 = system: NCI-H2009
Procedure, shortened: as §1

NCI-H1792 = system: NCI-H1792
Procedure, shortened: as §1

NCI-H727 = system: NCI-H727
Procedure, shortened: as §1

NCI-H2170 = system: NCI-H2170
Procedure, shortened: as §1

NCI-H1437 = system: NCI-H1437
Procedure, shortened: as §1

NCI-H1755 = system: NCI-H1755
Procedure, shortened: as §1

UMC-11 = system: UMC-11
Procedure, shortened: as §1

HCC-78 = system: HCC-78
Procedure, shortened: as §1

LCLC-97TM1 = system: LCLC-97TM1
Procedure, shortened: as §1

LOU-NH91 = system: LOU-NH91
Procedure, shortened: as §1

NCI-H1355 = system: NCI-H1355
Procedure, shortened: as §1

RERF-LC-KJ = system: RERF-LC-KJ
Procedure, shortened: as §1

ChaGo-K-1 = system: ChaGo-K-1
Procedure, shortened: as §1

SK-MES-1 = system: SK-MES-1
Procedure, shortened: as §1

NCI-H2085 = system: NCI-H2085
Procedure, shortened: as §1

NCI-H2405 = system: NCI-H2405
Procedure, shortened: as §1

Structure (SMILES): O=c1[nH]c2ccccc2n1C1CCN(CCCC(c2ccc(F)cc2)c2ccc(F)cc2)CC1 [Pimozide] + CC1(C)CCC(c2ccc(Cl)cc2)=C(CN2CCN(c3ccc(C(=O)NS(=O)(=O)c4ccc(N[C@H](CCN5CCOCC5)CSc5ccccc5)c(S(=O)(=O)C(F)(F)F)c4)cc3)CC2)C1 [Navitoclax] (partner 0.5 µM)
- relative viability (NCI-H2023; first compound 0.08 µM): 1.03
- relative viability (NCI-H2023; first compound 0.253 µM): 1.03
- relative viability (NCI-H2023; first compound 0.8 µM): 0.988
- relative viability (NCI-H2023; first compound 2.53 µM): 0.957
- relative viability (NCI-H2023; first compound 8 µM): 0.832
- relative viability (NCI-H23; first compound 0.08 µM): 0.882
- relative viability (NCI-H23; first compound 0.253 µM): 0.807
- relative viability (NCI-H23; first compound 0.8 µM): 0.732
- relative viability (NCI-H23; first compound 2.53 µM): 0.844
- relative viability (NCI-H23; first compound 8 µM): 0.801
- relative viability (HOP-62; first compound 0.08 µM): 1.11
- relative viability (HOP-62; first compound 0.253 µM): 0.851
- relative viability (HOP-62; first compound 0.8 µM): 0.812
- relative viability (HOP-62; first compound 2.53 µM): 1.03
- relative viability (HOP-62; first compound 8 µM): 0.903
- relative viability (NCI-H322M; first compound 0.253 µM): 1.21
- relative viability (NCI-H322M; first compound 0.8 µM): 1.14
- relative viability (NCI-H322M; first compound 2.53 µM): 1.21
- relative viability (NCI-H322M; first compound 8 µM): 1.11
- relative viability (NCI-H441; first compound 0.08 µM): 0.685
- relative viability (NCI-H441; first compound 0.253 µM): 0.697
- relative viability (NCI-H441; first compound 0.8 µM): 0.75
- relative viability (NCI-H441; first compound 2.53 µM): 0.487
- relative viability (NCI-H441; first compound 8 µM): 0.346
- relative viability (NCI-H2009; first compound 0.08 µM): 1.2
- relative viability (NCI-H2009; first compound 0.253 µM): 1.14
- relative viability (NCI-H2009; first compound 0.8 µM): 1.13
- relative viability (NCI-H2009; first compound 2.53 µM): 1.2
- relative viability (NCI-H2009; first compound 8 µM): 1.01
- relative viability (NCI-H1792; first compound 0.08 µM): 0.647
- relative viability (NCI-H1792; first compound 0.253 µM): 0.629
- relative viability (NCI-H1792; first compound 0.8 µM): 0.619
- relative viability (NCI-H1792; first compound 2.53 µM): 0.599
- relative viability (NCI-H1792; first compound 8 µM): 0.649
- relative viability (NCI-H727; first compound 0.08 µM): 0.415
- relative viability (NCI-H727; first compound 0.253 µM): 0.421
- relative viability (NCI-H727; first compound 0.8 µM): 0.409
- relative viability (NCI-H727; first compound 2.53 µM): 0.409
- relative viability (NCI-H727; first compound 8 µM): 0.379
- relative viability (NCI-H2170; first compound 0.08 µM): 0.526
- relative viability (NCI-H2170; first compound 0.253 µM): 0.703
- relative viability (NCI-H2170; first compound 0.8 µM): 0.596
- relative viability (NCI-H2170; first compound 2.53 µM): 0.571
- relative viability (NCI-H2170; first compound 8 µM): 0.585
- relative viability (NCI-H1437; first compound 0.08 µM): 1.07
- relative viability (NCI-H1437; first compound 0.253 µM): 1.06
- relative viability (NCI-H1437; first compound 0.8 µM): 1.06
- relative viability (NCI-H1437; first compound 2.53 µM): 0.993
- relative viability (NCI-H1437; first compound 8 µM): 0.81
- relative viability (NCI-H1755; first compound 0.08 µM): 0.963
- relative viability (NCI-H1755; first compound 0.253 µM): 0.941
- relative viability (NCI-H1755; first compound 0.8 µM): 0.969
- relative viability (NCI-H1755; first compound 2.53 µM): 0.882
- relative viability (NCI-H1755; first compound 8 µM): 0.771
- relative viability (UMC-11; first compound 0.08 µM): 0.33
- relative viability (UMC-11; first compound 0.253 µM): 0.318
- relative viability (UMC-11; first compound 0.8 µM): 0.293
- relative viability (UMC-11; first compound 2.53 µM): 0.286
- relative viability (UMC-11; first compound 8 µM): 0.239
- relative viability (HCC-78; first compound 0.08 µM): 0.764
- relative viability (HCC-78; first compound 0.253 µM): 0.717
- relative viability (HCC-78; first compound 0.8 µM): 0.893
- relative viability (HCC-78; first compound 2.53 µM): 0.71
- relative viability (HCC-78; first compound 8 µM): 0.691
- relative viability (LCLC-97TM1; first compound 0.08 µM): 0.527
- relative viability (LCLC-97TM1; first compound 0.253 µM): 0.489
- relative viability (LCLC-97TM1; first compound 0.8 µM): 0.215
- relative viability (LCLC-97TM1; first compound 2.53 µM): 0.415
- relative viability (LCLC-97TM1; first compound 8 µM): 0.402
- relative viability (LOU-NH91; first compound 0.08 µM): 0.309
- relative viability (LOU-NH91; first compound 0.253 µM): 0.734
- relative viability (LOU-NH91; first compound 0.8 µM): 0.736
- relative viability (LOU-NH91; first compound 2.53 µM): 0.788
- relative viability (LOU-NH91; first compound 8 µM): 0.739
- relative viability (NCI-H1355; first compound 0.08 µM): 0.849
- relative viability (NCI-H1355; first compound 0.253 µM): 1.01
- relative viability (NCI-H1355; first compound 0.8 µM): 0.908
- relative viability (NCI-H1355; first compound 2.53 µM): 0.959
- relative viability (NCI-H1355; first compound 8 µM): 0.856
- relative viability (RERF-LC-KJ; first compound 0.08 µM): 0.913
- relative viability (RERF-LC-KJ; first compound 0.253 µM): 0.855
- relative viability (RERF-LC-KJ; first compound 0.8 µM): 0.885
- relative viability (RERF-LC-KJ; first compound 2.53 µM): 1.04
- relative viability (RERF-LC-KJ; first compound 8 µM): 0.92
- relative viability (ChaGo-K-1; first compound 0.08 µM): 0.861
- relative viability (ChaGo-K-1; first compound 0.253 µM): 0.935
- relative viability (ChaGo-K-1; first compound 0.8 µM): 0.974
- relative viability (ChaGo-K-1; first compound 2.53 µM): 1.01
- relative viability (ChaGo-K-1; first compound 8 µM): 0.941
- relative viability (SK-MES-1; first compound 0.08 µM): 1.31
- relative viability (SK-MES-1; first compound 0.253 µM): 1.25
- relative viability (SK-MES-1; first compound 0.8 µM): 1.18
- relative viability (SK-MES-1; first compound 2.53 µM): 1.21
- relative viability (SK-MES-1; first compound 8 µM): 1.08
- relative viability (NCI-H2085; first compound 0.08 µM): 1.15
- relative viability (NCI-H2085; first compound 0.253 µM): 1.15
- relative viability (NCI-H2085; first compound 0.8 µM): 1.11
- relative viability (NCI-H2085; first compound 2.53 µM): 1.04
- relative viability (NCI-H2085; first compound 8 µM): 1.06
- relative viability (NCI-H2405; first compound 0.08 µM): 0.795
- relative viability (NCI-H2405; first compound 0.253 µM): 0.716
- relative viability (NCI-H2405; first compound 0.8 µM): 0.89
- relative viability (NCI-H2405; first compound 2.53 µM): 0.801
- relative viability (NCI-H2405; first compound 8 µM): 0.637
